In ChEMBL document CHEMBL4422673, “Discovery, synthesis and characterization of a series of (1-alkyl-3-methyl-1H-pyrazol-5-yl)-2-(5-aryl-2H-tetrazol-2-yl)acetamides as novel GIRK1/2 potassium channel activators” (Bioorg Med Chem Lett, 2019):
Active and inactive are the calls of the source. The calls are words filed in the database; no cut-off is given here.

What was measured:
[1] = target: Kir3.1/Kir3.4 (Homo sapiens) (UniProt P48549+P48544); test: Activation of human GIRK1/4 expressed in HEK293 cells co-expressing rat mGlu8 by thallium flux assay relative to control; type: cell-based
[2] = Stability in mouse plasma; type: ADME, cell-free
[3] = Clearance in mouse liver microsomes
[4] = target: T1, Kir3.1/Kir3.2 (Homo sapiens, UniProt P48051+P48549); test: (§1) Activation of human GIRK1/2 expressed in HEK293 cells co-expressing rat mGlu8 by thallium flux assay; type: cell-based
T1 sequence (P48549 whole entry): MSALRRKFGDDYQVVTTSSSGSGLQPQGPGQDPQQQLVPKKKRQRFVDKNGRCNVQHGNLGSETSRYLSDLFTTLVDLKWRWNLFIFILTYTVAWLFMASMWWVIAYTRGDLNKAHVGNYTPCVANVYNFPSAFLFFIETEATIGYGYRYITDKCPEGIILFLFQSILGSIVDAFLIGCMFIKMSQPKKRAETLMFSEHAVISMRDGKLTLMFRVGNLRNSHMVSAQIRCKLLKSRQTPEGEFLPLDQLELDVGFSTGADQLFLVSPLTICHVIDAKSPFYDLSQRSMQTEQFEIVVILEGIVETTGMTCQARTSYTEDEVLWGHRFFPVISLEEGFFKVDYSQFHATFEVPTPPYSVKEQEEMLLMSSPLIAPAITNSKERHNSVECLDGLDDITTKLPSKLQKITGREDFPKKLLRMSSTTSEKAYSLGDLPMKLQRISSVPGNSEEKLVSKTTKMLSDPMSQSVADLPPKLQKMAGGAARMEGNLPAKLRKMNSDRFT
T1 sequence (P48051 whole entry): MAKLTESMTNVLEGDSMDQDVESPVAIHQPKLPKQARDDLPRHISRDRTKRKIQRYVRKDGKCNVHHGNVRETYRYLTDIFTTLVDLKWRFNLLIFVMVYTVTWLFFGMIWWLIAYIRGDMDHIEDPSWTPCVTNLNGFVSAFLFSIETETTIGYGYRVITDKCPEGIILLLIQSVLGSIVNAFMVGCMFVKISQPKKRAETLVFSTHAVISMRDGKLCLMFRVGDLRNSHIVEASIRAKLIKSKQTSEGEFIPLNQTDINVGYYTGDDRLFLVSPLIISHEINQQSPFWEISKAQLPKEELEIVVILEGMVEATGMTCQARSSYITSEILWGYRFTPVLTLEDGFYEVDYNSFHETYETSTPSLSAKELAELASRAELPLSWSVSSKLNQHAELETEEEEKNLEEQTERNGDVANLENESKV

[5] = target: T2, Kir3.1/Kir3.4 (Homo sapiens, UniProt P48544+P48549); test: (§2) Activation of human GIRK1/4 expressed in HEK293 cells co-expressing rat mGlu8 by thallium flux assay; type: cell-based
T2 sequence (P48549 whole entry): T1 sequence (P48549 whole entry)
T2 sequence (P48544 whole entry): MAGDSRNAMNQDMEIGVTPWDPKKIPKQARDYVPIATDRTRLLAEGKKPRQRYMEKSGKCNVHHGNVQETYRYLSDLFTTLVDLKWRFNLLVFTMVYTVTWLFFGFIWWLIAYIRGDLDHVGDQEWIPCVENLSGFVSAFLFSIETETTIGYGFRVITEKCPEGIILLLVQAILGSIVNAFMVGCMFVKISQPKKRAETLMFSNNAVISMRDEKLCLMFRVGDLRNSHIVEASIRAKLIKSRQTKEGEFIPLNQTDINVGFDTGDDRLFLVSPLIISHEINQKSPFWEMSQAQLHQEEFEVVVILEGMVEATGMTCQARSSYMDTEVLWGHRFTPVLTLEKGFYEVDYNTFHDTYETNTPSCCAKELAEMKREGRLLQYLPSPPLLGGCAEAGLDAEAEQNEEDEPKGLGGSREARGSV

[6] = target: T3, Kir3.1/Kir3.2 (Homo sapiens) (UniProt P48549+P48051); test: Activation of human GIRK1/2 expressed in HEK293 cells co-expressing rat mGlu8 by thallium flux assay relative to control; type: cell-based
[7] = Clearance in human liver microsomes
[8] = Fraction unbound in human plasma; type: ADME, cell-free
[9] = target: T4, Kir3.1/Kir3.4 (Homo sapiens, UniProt P48549+P48544); test: as §2; type: cell-based; details: hek293
T4 sequence (P48549 whole entry): T1 sequence (P48549 whole entry)
T4 sequence (P48544 whole entry): T2 sequence (P48544 whole entry)

[10] = species: Homo sapiens; test: Ratio of EC50 for activation of human GIRK1/4 expressed in HEK293 cells co-expressing rat mGlu8 by thallium flux assay to EC50 for Activation of human GIRK1/2 expressed in HEK293 cells co-expressing rat mGlu8 by thallium flux assay; type: cell-based
[11] = target: T5, Kir3.1/Kir3.2 (Homo sapiens, UniProt P48549+P48051); test: as §1; type: cell-based; details: hek293
T5 sequence (P48549 whole entry): T1 sequence (P48549 whole entry)
T5 sequence (P48051 whole entry): T1 sequence (P48051 whole entry)

[12] = target: T3, Kir3.1/Kir3.2 (Homo sapiens); test: as §1; type: cell-based
[13] = Half life in human liver S9 fraction; type: ADME, subcellular
[14] = Extraction ratio in human liver S9 fraction; type: ADME, subcellular; details: read-out: ERH

Compound | Emax [1] | Stability [2] | CLhep predicted [3] | EC50 [4] | EC50 [5] | Emax [6] | CLhep predicted [7] | Fu [8] | EC50 [9] | Ratio EC50 [10] | EC50 [11] | Activity [12] | t1/2 [13] | hepatic extraction ratio [14]
Cc1cc(NC(=O)Cn2cc(-c3ccccc3)nn2)n(C2CCCCC2)n1 | 76% | Unstable | 78.2 mL/min/kg | 116 nM | 412 nM | 87% | 14.6 mL/min/kg | 3% | – | – | – | – | – | –
CC1(c2cc(NC(=O)Cn3nnc(-c4ccccc4)n3)n(C3CCCCC3)n2)CC1 | inactive | – | – | > 10000 nM | – | > 10% | – | – | Not Active | – | – | – | – | –
Cc1cc(NC(=O)Cn2nncc2-c2ccccc2)n(C2CCCCC2)n1 | 49% | Unstable | 87.7 mL/min/kg | 375 nM | 1030 nM | 87% | 18.3 mL/min/kg | 0.4% | – | – | – | – | – | –
Cc1cc(NC(=O)Cn2nnc(-c3ccc(Cl)c(Cl)c3)n2)n(C2CCCCC2)n1 | 70% | Unstable | 76 mL/min/kg | 1220 nM | 2200 nM | 84% | 17.4 mL/min/kg | < 0.3% | – | 3 to 5 | – | – | – | –
Cc1cc(NC(=O)Cn2nnc(-c3cccc(F)c3)n2)n(C2CCCCC2)n1 | 80% | Unstable | 87.1 mL/min/kg | – | – | 96% | 17.8 mL/min/kg | 1% | – | 3 to 5 | – | – | – | –
Cc1cc(NC(=O)Cn2nnc(-c3ccccc3)n2)n(CC2CCCCC2)n1 | 58% | Unstable | 88.7 mL/min/kg | 176 nM | 283 nM | 77% | 20.4 mL/min/kg | 0.3% | – | – | – | – | – | –
Cc1cc(NC(=S)Cn2nnc(-c3ccccc3)n2)n(C2CCCCC2)n1 | 36% | Unstable | – | 623 nM | 1260 nM | 80% | 18.9 mL/min/kg | < 0.06% | – | – | – | – | – | –
Cc1cc(NC(=O)Cn2nnc(-c3ccccc3)n2)n(C2CCCCC2)n1 | 63% | Unstable | 87 mL/min/kg | 96 nM | 259 nM | 92% | 18.9 mL/min/kg | 1.1% | – | 3 | – | – | – | –
Cc1cc(NC(=O)Cn2nnc(-c3ccccc3)n2)n(C2CCC(F)(F)CC2)n1 | 52% | Unstable | 80 mL/min/kg | 84 nM | 383 nM | 68% | 15.9 mL/min/kg | 1.5% | – | – | – | – | – | –
Cc1cc(NC(=O)Cn2nnc(-c3cccc(Cl)c3)n2)n(C2CCCCC2)n1 | 66% | – | – | 300 nM | 662 nM | 89% | – | – | – | 3 to 5 | – | – | – | –
Cc1nc(NC(=O)Cn2nnc(-c3ccccc3)n2)n(-c2ccccc2)n1 | inactive | – | – | – | – | inactive | – | – | Not Active | – | Not Active | – | – | –
O=C(Cn1nnc(-c2ccccc2)n1)Nc1cc(C2(C(F)(F)F)CC2)nn1C1CCCCC1 | inactive | – | – | – | – | inactive | – | – | Not Active | – | Not Active | – | – | –
Cc1nc(-c2ccccc2)c(NC(=O)Cn2nnc(-c3ccccc3)n2)s1 | inactive | – | – | – | – | inactive | – | – | Not Active | – | Not Active | – | – | –
Cc1cc(NC(=O)Cn2nnc(-c3ccccc3)n2)n(C2CCC(C)(C)CC2)n1 | inactive | – | – | > 221 nM | – | > 19% | – | – | Not Active | – | – | – | – | –
Cc1cc(N(C)C(=O)Cn2nnc(-c3ccccc3)n2)n(C2CCCCC2)n1 | – | – | – | – | – | – | – | – | – | – | – | inactive | – | –
Cc1cc(NC(=O)Cc2ccc(-c3ccccc3)cn2)n(C2CCCCC2)n1 | inactive | – | – | 1520 nM | – | 36% | – | – | Not Active | – | – | – | – | –
Cc1cc(NC(=O)Cn2nnc(-c3ccccc3)n2)n(C2CCS(=O)(=O)CC2)n1 | inactive | – | – | > 10000 nM | – | > 25% | – | – | Not Active | – | – | – | – | –
Cc1cc(NC(=O)Cn2nnc(-c3ccc(F)c(F)c3)n2)n(C2CCCCC2)n1 | 79% | – | – | 116 nM | 392 nM | 93% | – | – | – | 3 to 5 | – | – | – | –
Cc1cc(NC(=O)Cn2nnc(-c3ccccc3)n2)n(C2CCS(=O)(=O)C2)n1 (centres undefined) | 75% | Unstable | – | 1030 nM | 2170 nM | 93% | – | 3.7% | – | – | – | – | 10.79 h | < 0.05
O=C(Cn1nnc(-c2ccccc2)n1)Nc1ccccn1 | inactive | – | – | – | – | inactive | – | – | Not Active | – | Not Active | – | – | –
COc1ccc(-c2nnn(CC(=O)Nc3cc(C)nn3C3CCCCC3)n2)cc1 | 65% | – | – | 175 nM | 779 nM | 90% | – | – | – | – | – | – | – | –
